Series [1] can be described thus: Oral bioavailability in rat. Format: ADME, organism-based. The settings on record: in vivo.
The nature of series [2]: Plasma clearance in rats. Type of series: ADME, organism-based. The settings on record: rat, read-out: Clp.
A short description of series [3]: Half life in rats. Type of series: ADME, organism-based. The settings on record: rat, in vivo.
Series [4] can be described thus: Half life in dogs. Type of series: ADME, organism-based, Canis lupus familiaris. To be noted: dog, in vivo.
For series [5], the species on record is Mus musculus. In words: Compound (3 mpk) was tested for reduction in glucose excursion in mice by using oral glucose tolerance test (OGTT) after 1 hour. Type of series: functional.
Series [6] can be described thus: Clearance in dogs. Format: ADME, organism-based, Canis lupus familiaris. The settings on record: dog, in vivo.
Series [7] is described as follows: Oral bioavailability (F) in dogs. Format: ADME, organism-based, Canis lupus familiaris. To be noted: dog, in vivo.
Series [8] concerns the target Dipeptidyl peptidase 4 (Homo sapiens, UniProt P27487).
The target in series [9] is Dipeptidyl peptidase 2 (Homo sapiens, UniProt Q9UHL4). The experiment in a line: Inhibitory activity against quiescent cell prolyl peptidase (QPP).
Series [10] concerns the target Voltage-gated inwardly rectifying potassium channel KCNH2 (Homo sapiens, UniProt Q12809). In words: Binding affinity for Potassium channel HERG Kv11.1.

Bounds are passed on as bounds.

As a reminder, the bioavailability is dose-corrected exposure relative to a reference, in per cent. A higher bioavailability goes with good availability. By half-life is commonly meant the time in which the quantity being followed falls by half. By IC50 is commonly meant the concentration that gives 50% inhibition. A word on the Ki: it is the equilibrium dissociation constant of an inhibitor or competing ligand from its target.

Sequence of Dipeptidyl peptidase 4 (P27487 whole entry): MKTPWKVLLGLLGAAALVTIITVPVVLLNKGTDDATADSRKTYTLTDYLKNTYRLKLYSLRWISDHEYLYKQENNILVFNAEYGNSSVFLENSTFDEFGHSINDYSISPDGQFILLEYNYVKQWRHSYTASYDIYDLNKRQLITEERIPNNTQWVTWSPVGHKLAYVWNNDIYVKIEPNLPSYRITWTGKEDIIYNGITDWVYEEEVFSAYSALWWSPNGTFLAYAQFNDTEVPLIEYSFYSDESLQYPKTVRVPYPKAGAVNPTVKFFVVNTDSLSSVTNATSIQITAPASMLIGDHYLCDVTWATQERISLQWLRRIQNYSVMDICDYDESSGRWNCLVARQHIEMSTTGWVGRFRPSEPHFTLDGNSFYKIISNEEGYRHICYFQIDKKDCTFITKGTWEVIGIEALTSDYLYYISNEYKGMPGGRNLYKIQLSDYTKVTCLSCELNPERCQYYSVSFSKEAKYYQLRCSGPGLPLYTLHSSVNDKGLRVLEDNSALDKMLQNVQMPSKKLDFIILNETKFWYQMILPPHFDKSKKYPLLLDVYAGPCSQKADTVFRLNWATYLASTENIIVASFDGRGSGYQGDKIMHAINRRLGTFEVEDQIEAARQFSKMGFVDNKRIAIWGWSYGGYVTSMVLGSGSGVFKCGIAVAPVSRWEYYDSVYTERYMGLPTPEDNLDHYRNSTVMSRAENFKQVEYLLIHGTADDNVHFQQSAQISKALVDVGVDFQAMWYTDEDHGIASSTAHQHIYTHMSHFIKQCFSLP
Sequence of Voltage-gated inwardly rectifying potassium channel KCNH2 (Q12809 whole entry): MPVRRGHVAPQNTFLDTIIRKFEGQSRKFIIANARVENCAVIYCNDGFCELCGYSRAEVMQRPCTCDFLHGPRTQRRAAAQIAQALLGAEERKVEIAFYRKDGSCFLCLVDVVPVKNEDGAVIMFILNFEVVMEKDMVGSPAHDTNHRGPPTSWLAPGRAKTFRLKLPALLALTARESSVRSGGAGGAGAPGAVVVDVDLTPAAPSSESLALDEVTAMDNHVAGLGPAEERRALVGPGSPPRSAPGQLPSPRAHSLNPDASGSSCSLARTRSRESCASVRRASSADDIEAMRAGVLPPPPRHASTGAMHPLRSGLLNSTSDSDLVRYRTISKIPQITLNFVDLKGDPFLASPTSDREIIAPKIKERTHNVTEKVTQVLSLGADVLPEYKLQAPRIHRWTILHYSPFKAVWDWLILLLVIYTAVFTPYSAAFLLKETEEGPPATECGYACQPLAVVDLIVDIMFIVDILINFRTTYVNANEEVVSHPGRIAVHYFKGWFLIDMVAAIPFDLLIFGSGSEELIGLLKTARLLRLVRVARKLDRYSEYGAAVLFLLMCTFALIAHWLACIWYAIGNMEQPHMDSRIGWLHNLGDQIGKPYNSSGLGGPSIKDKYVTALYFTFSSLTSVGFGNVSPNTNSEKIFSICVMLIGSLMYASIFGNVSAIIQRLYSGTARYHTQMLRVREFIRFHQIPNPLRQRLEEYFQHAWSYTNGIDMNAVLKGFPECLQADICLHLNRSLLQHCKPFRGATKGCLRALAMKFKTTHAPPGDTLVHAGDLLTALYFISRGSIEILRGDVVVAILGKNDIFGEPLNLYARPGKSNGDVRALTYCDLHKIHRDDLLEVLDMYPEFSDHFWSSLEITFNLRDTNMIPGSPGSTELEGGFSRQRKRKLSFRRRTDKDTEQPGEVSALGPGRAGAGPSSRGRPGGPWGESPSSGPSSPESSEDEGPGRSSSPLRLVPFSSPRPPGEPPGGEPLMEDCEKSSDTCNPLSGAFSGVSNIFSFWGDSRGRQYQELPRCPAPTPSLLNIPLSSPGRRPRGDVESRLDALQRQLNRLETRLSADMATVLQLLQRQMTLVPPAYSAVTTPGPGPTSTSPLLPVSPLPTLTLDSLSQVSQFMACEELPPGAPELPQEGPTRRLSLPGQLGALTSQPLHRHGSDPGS

`N[C@H](C(=O)N1CCSC1)[C@H]1CC[C@H](NC(=O)c2ccc(F)c(F)c2)CC1` registered a bioavailability in series [1] of 81%. In addition, the clearance in [2] was 30 mL/min/kg. Besides, the half-life in series [3] was 2 h.
For `N[C@H](C(=O)N1CCCC1)[C@H]1CC[C@H](NC(=O)OCc2ccccc2)CC1`, in that order: 52%, 28 mL/min/kg and 4 h.
For `N[C@H](C(=O)N1CCCC1)[C@H]1CC[C@H](NS(=O)(=O)c2ccc(OC(F)(F)F)cc2)CC1`, in that order: 38%, 31 mL/min/kg and 3.6 h.
For `N[C@H](C(=O)N1CCSC1)[C@H]1CC[C@H](NS(=O)(=O)c2ccc(OC(F)(F)F)cc2)CC1`, in that order: 85%, 21 mL/min/kg and 4.7 h.
Turning to `N[C@H](C(=O)N1CCCC1)[C@H]1CC[C@H](NS(=O)(=O)c2ccc(F)cc2F)CC1`, the half-life was 6 h in series [4] and 1.8 h in [3]. In series [5], this molecule showed a Reduction of 36%. Further, the values for the clearance in [6] and in series [2] were 14 mL/min/kg and 53 mL/min/kg, respectively. Besides, the bioavailability in series [1] was 36%; in series [7] it was 100%.
Consider `N[C@H](C(=O)N1CCSC1)[C@H]1CC[C@H](NS(=O)(=O)c2ccc(I)cc2)CC1`, for which the 50% inhibitory concentration (IC50) is 23 nM in [8] and 280 nM in series [9].
Regarding `N#Cc1cccc(S(=O)(=O)N[C@H]2CC[C@H]([C@H](N)C(=O)N3CCSC3)CC2)c1`, the half-inhibitory concentration (IC50) in series [8] came to 24 nM; in [9], 820 nM.
The corresponding values for `CN(C)C(=O)Nc1ccc(S(=O)(=O)N[C@H]2CC[C@H]([C@H](N)C(=O)N3CCSC3)CC2)cc1` are 7.5 nM and 2000 nM.
In turn, `CN(C)C(=O)Nc1ccc(S(=O)(=O)N[C@H]2CC[C@H]([C@H](N)C(=O)N3CCCC3)CC2)cc1` yielded a bioavailability in [1] of 1%. The IC50 in [8] was 26 nM; in [9] it was 12000 nM. Besides, in [2], the clearance stood at 21 mL/min/kg. In addition, the half-life in [3] was 2.4 h.
As to `N[C@H](C(=O)N1CCSC1)[C@H]1CC[C@H](NC(=O)Nc2ccc(F)c(F)c2)CC1`, the IC50 in [8] was found to be 35 nM; in series [9], 380 nM.
For `N[C@H](C(=O)N1CCCC1)[C@H]1CC[C@H](NS(=O)(=O)c2ccc(F)c(F)c2F)CC1`, in that order: 98 nM and 8200 nM.
For `N[C@H](C(=O)N1CCSC1)[C@H]1CC[C@H](NS(=O)(=O)c2ccc3ccccc3c2)CC1`, in that order: 18 nM and 170 nM.
For `N[C@H](C(=O)N1CCSC1)[C@H]1CC[C@H](NS(=O)(=O)c2ccc(F)c(F)c2F)CC1`, in that order: 24 nM and 960 nM.
In the case of `N[C@H](C(=O)N1CCCC1)[C@H]1CC[C@H](NC(=O)c2cccc3ccccc23)CC1`, in [10], the affinity, expressed as Ki, was 17000 nM. For the same molecule, the bioavailability in series [1] is 30%. In addition, the values for the concentration for half-maximal inhibition (IC50) in series [8] and in series [9] were 46 nM and 8600 nM, respectively. In series [2], the clearance was 13 mL/min/kg. In series [3], this molecule had a half-life of 2.3 h.
`N[C@H](C(=O)N1CCSC1)[C@H]1CC[C@H](N)CC1` showed a half-maximal inhibitory concentration (IC50) in series [8] of 2700 nM.
As to `N[C@H](C(=O)N1CCSC1)[C@H]1CC[C@H](NC(=O)c2ccc(Cl)c(Cl)c2)CC1`, the IC50 in series [8] was determined as 38 nM; in [9], 230 nM.
In the case of `N[C@H](C(=O)N1CCSC1)[C@H]1CC[C@H](NC(=O)c2ccc(I)cc2)CC1`, the IC50 was determined as 33 nM in [8] and 340 nM in [9].
For `N[C@H](C(=O)N1CCSC1)[C@H]1CC[C@H](NC(=O)c2ccc3ccccc3c2)CC1`, in that order: 21 nM and 230 nM.
With `N[C@H](C(=O)N1CCSC1)[C@H]1CC[C@H](NC(=O)c2cccc3ccccc23)CC1`, the Ki in [10] came out at 22000 nM. Moreover, in series [1], the bioavailability was determined as 51%. The results for the IC50 in [8] and in [9] were 15 nM and 900 nM, respectively. In [2], the clearance was found to be 22 mL/min/kg. The same molecule showed a half-life in series [3] of 1.2 h.
Take `N[C@H](C(=O)N1CCSC1)[C@H]1CC[C@H](NC(=O)OCc2ccc(Cl)c(Cl)c2)CC1`: the IC50 in [8] was found to be 29 nM; in series [9], 170 nM.
Turning to `N[C@H](C(=O)N1CCSC1)[C@H]1CC[C@H](NC(=O)OCc2ccc3ccccc3c2)CC1`, the IC50 in series [8] was found to be 20 nM; in [9], 200 nM.
In the case of `N[C@H](C(=O)N1CCSC1)[C@H]1CC[C@H](NC(=O)OCc2cccc3ccccc23)CC1`, the figures for the concentration for half-maximal inhibition (IC50) in series [8] and in series [9] were 17 nM and 170 nM, respectively.
In series [10], `N[C@H](C(=O)N1CCSC1)[C@H]1CC[C@H](NC(=O)Nc2ccc(I)cc2)CC1` gave an inhibition constant (Ki) of 1900 nM. Besides, the bioavailability in series [1] was 12%. For the same molecule, the values for the IC50 in series [8] and in series [9] were 10 nM and 210 nM, respectively. For the same molecule, the clearance in series [2] turned out to be 74 mL/min/kg. For the same molecule, the half-life in series [3] is 2.3 h.
Take `N[C@H](C(=O)N1CCSC1)[C@H]1CC[C@H](NC(=O)Nc2ccc(Cl)c(Cl)c2)CC1`: the IC50 in [8] was determined as 17 nM; in series [9], 170 nM.
As for `N[C@H](C(=O)N1CCSC1)[C@H]1CC[C@H](NC(=O)Nc2ccc(OC(F)(F)F)cc2)CC1`, the concentration for half-maximal inhibition (IC50) in series [8] stood at 55 nM; in series [9] it was 350 nM.
The corresponding values for `N[C@H](C(=O)N1CCSC1)[C@H]1CC[C@H](NC(=O)c2cnc3ccccc3c2)CC1` are 9 nM and 230 nM.
`N[C@H](C(=O)N1CCCC1)[C@H]1CC[C@H](NS(=O)(=O)c2ccc(NS(=O)(=O)CC(F)(F)F)cc2)CC1` displayed a Ki in series [10] greater than 100000 nM. For the same molecule, in [1], the bioavailability is 0%. The molecule further displayed an IC50 in series [9] of 15000 nM. The clearance in series [2] amounted to 95 mL/min/kg. In addition, the half-life in series [3] is 0.1 h.
`N#Cc1ccc(NCCNCC(=O)N2CCC[C@H]2C#N)nc1`: the IC50 in series [9] turned out to be 6600 nM.

Values taken from ChEMBL document CHEMBL1146708, “4-Amino cyclohexylglycine analogues as potent dipeptidyl peptidase IV inhibitors” (Bioorg Med Chem Lett, 2004).
